According to US20100248365A1, “GANGLIOSIDE BIOSYNTHESIS MODULATORS” (ZACHARON PHARMACEUTICALS, INC., priority 2009, published 2010):

Molecular target: T1, ST3Gal 1 (rat recombinant a 2,3-Sialytransferase) (Rattus norvegicus, UniProt Q6H8N0)
T1 sequence (Q6H8N0 1-340): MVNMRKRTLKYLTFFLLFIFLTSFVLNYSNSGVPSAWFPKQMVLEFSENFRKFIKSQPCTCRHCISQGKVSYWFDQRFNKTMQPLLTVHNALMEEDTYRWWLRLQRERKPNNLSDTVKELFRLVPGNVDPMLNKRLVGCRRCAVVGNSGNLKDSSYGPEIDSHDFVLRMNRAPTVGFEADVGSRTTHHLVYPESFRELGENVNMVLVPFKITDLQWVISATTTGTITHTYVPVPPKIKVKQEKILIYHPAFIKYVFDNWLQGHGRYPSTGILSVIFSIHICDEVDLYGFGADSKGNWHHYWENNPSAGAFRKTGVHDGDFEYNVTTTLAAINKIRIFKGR
Assay: ST3Gal 1 assay with 2AA-labeled GSL standards, HPLC readout
Format: biochemical
Conditions: b350 ties FIG. 5/6 (compound 1) to the ST3Gal 1 assay
Protocol: The enzyme ST3Gal 1 (rat recombinant a 2,3-Sialytransferase) assay was carried out with 2AA-labeled GSL standards as substrate. The complete incubation mixture contained the following components in a final volume of 20 ul: 50 mM cacodylate buffer, pH6.2, 10 mM MgCl2, 0.2% TX100, 2 mM CMP-sialic acid (CMP-SA), 100 ng 2AA-GM1/GD1b, 10 μU of ST3Gal1 enzyme. The reaction was carried out @37° C. for 30 min. Control reactions were done without CMP-SA. The reaction was analyzed by HPLC as described above. The % of product conversion was assessed by comparison to control samples. The enzyme titration curve was determined from 10, 3, 1, 0.3 and 0.1 μU of enzyme. The time course was determined using 10 μU of the enzyme, @ 0, 5, 10, 15, 30, 45, 60, 90, and 120 min. […] FIG. 5 illustrates the activity of late stage selective ganglioside inhibitors.

inhibition of ST3Gal 1 enzyme activity (FIG. 5): inhibition
SMILES: Cc1nn(-c2ccccc2)c(C)c1C=NN1CCN(Cc2ccccc2Cl)CC1 [compound 1, 4-(2-chlorobenzyl)-N-((3,5-dimethyl-1-phenyl-1H-pyrazol-4-yl)methylene)piperazin-1-amine]
